Remaining activity data for 31 compounds are collected here from PMC8286840, “Identifying SARS-CoV-2 antiviral compounds by screening for small molecule inhibitors of Nsp3 papain-like protease” (Biochemical Journal, 2021).

Structures can show the parent of a compound that is named as a salt. Where two headings read alike, the source gives them in different places.

For experiment [1], the target named is T1, SARS-CoV-2 PLpro (nsp3 1564–1878) (Severe acute respiratory syndrome coronavirus 2, UniProt P0DTD1). The experiment is described as follows: biochemical. The arrangement: FRET-quenched peptide (Pro3) cleavage by PLpro, 10 min pre-incubation, slope over 20 min, normalised to no-compound control. Particulars: low concentration screen, read-out: % of control remaining.

For experiment [2], the target named is T1, SARS-CoV-2 PLpro (nsp3 1564–1878). The experiment is described as follows: biochemical. The note with it: high concentration screen, read-out: % of control remaining. Also on record: FRET-quenched peptide (Pro3) cleavage by PLpro, 10 min pre-incubation, slope over 20 min, normalised to no-compound control.

As for `C=C1C(=O)[C@]23[C@H](O)[C@H]1CC[C@H]2[C@@]12CO[C@]3(O)[C@@H](O)[C@@H]1C(C)(C)CC[C@@H]2O` [Oridonin], in experiment [1] (Well no.=3255), the remaining activity at 1.25 µM was 101%. Further, the remaining activity at 3.75 µM in experiment [2] (Well no.=3255) was determined as 103%.

For `CC(C)(C)c1nc2c3cc[nH]c(=O)c3c3cc(F)ccc3c2[nH]1` [JAK Inhibitor I], the remaining activity at 1.25 µM in experiment [1] (Well no.=2455) was found to be 101%. For the same compound, in experiment [2] (Well no.=2455), the remaining activity at 3.75 µM was determined as 103%.

For `CC(C)C[C@H](NC(=O)[C@@H](COC(C)(C)C)NC(=O)[C@H](Cc1ccc(O)cc1)NC(=O)[C@H](CO)NC(=O)[C@H](Cc1c[nH]c2ccccc12)NC(=O)[C@H](Cc1cnc[nH]1)NC(=O)[C@@H]1CCC(=O)N1)C(=O)N[C@@H](CCCNC(=N)N)C(=O)N1CCC[C@H]1C(=O)NNC(N)=O` [Goserelin (acetate)], the remaining activity at 1.25 µM in experiment [1] (Well no.=7338) was 97.1%. The remaining activity at 3.75 µM in experiment [2] (Well no.=7338) was 95%.

For the compound `CC[C@H](C(=O)N1CCCC[C@H]1C(=O)O[C@H](CCc1ccc(OC)c(OC)c1)c1cccc(OCC(=O)O)c1)c1cc(OC)c(OC)c(OC)c1` [AP1867], the remaining activity at 1.25 µM in experiment [1] (Well no.=6982) was determined as 103%. The remaining activity at 3.75 µM in experiment [2] (Well no.=6982) was determined as 100%.

`C1CCc2nnnn2CC1` [Pentylenetetrazole]: the remaining activity at 1.25 µM in experiment [1] (Well no.=1054) was 97.5%. Further, the remaining activity at 3.75 µM in experiment [2] (Well no.=1054) stood at 99.6%.

Take `COc1cc(N)c(Cl)cc1C(=O)N[C@@H]1CCN(CCCOc2ccc(F)cc2)C[C@@H]1OC` (racemic) [Cisapride]: in experiment [1] (Well no.=6909), the remaining activity at 1.25 µM amounted to 91.7%. The remaining activity at 3.75 µM in experiment [2] (Well no.=6909) was 90.7%.

In the case of `CC(C)c1ccc2c(c1)c(SC(C)(C)C)c(CC(C)(C)C(=O)O)n2Cc1ccc(Cl)cc1` [MK-886 (L-663,536)], the remaining activity at 1.25 µM in experiment [1] (Well no.=8678) turned out to be 96.7%. The remaining activity at 3.75 µM in experiment [2] (Well no.=8678) turned out to be 94.2%.

Take `COc1cc(Br)c(Nc2nc(-c3c(C)nc4ncccn34)cs2)c(Br)c1` [PTC-209]: the remaining activity at 1.25 µM in experiment [1] (Well no.=5643) turned out to be 94.3%. Moreover, the remaining activity at 3.75 µM in experiment [2] (Well no.=5643) came out at 95%.

With `Oc1ccc(OC2CCCCO2)cc1` (stereo not drawn) [Deoxyarbutin], the remaining activity at 1.25 µM in experiment [1] (Well no.=5166) came out at 103%. In addition, in experiment [2] (Well no.=5166), the remaining activity at 3.75 µM is 101%.

In the case of `CC(C)n1cnc2c(NCc3ccccc3)nc(NCCO)nc21` [N9-Isopropylolomoucine], the remaining activity at 1.25 µM in experiment [1] (Well no.=716) was 96.5%. Moreover, the remaining activity at 3.75 µM in experiment [2] (Well no.=716) is 98.5%.

On to `CCCCC(=O)O[C@]1(C(=O)CO)[C@@H](C)C[C@H]2[C@@H]3CCC4=CC(=O)C=C[C@]4(C)[C@@]3(F)[C@@H](O)C[C@@]21C` [Betamethasone valerate], for which the remaining activity at 1.25 µM in experiment [1] (Well no.=5651) was determined as 94.9%. The remaining activity at 3.75 µM in experiment [2] (Well no.=5651) amounted to 97.2%.

In the case of `COCC[n+]1c2c(n(Cc3cnccn3)c1C)C(=O)c1ccccc1C2=O` [YM-155], in experiment [1] (Well no.=6678), the remaining activity at 1.25 µM came out at 94.8%. The remaining activity at 3.75 µM in experiment [2] (Well no.=6678) was 91.4%.

With `COC(=O)[C@H]1[C@H]2C[C@H]3c4[nH]c5ccccc5c4CCN3C[C@H]2CC[C@@H]1O` [Rauwolscine hydrochloride], the remaining activity at 1.25 µM in experiment [1] (Well no.=1400) worked out at 100%. Besides, the remaining activity at 3.75 µM in experiment [2] (Well no.=1400) stood at 99%.

Take `CN1CCN(c2nc(C3=C(c4c[nH]c5ccccc45)C(=O)NC3=O)c3ccccc3n2)CC1` [Sotrastaurin (AEB071)]: the remaining activity at 1.25 µM in experiment [1] (Well no.=4747) was 105%. In addition, in experiment [2] (Well no.=4747), the remaining activity at 3.75 µM amounted to 109%.

Regarding `CCOC(=O)c1cnc2c(cnn2CC)c1NN=C(C)C` [Etazolate hydrochloride], the remaining activity at 1.25 µM in experiment [1] (Well no.=550) was 101%. Further, in experiment [2] (Well no.=550), the remaining activity at 3.75 µM was determined as 103%.

Take `C[C@H](CCC(=O)NCC(=O)O)[C@H]1CC[C@H]2[C@@H]3[C@H](O)C[C@@H]4C[C@H](O)CC[C@]4(C)[C@H]3CC[C@]12C` [Glycochenodeoxycholic acid]: the remaining activity at 1.25 µM stood at 105% in experiment [1] (Well no.=7020) and 103% in experiment [1] (Well no.=7257). The remaining activity at 3.75 µM in experiment [2] (Well no.=7020) is 102%.

As to `O=C(Nc1cccc(C(F)(F)F)c1)Nc1cc(S(=O)(=O)NC2CC2)ccc1-c1ccsc1` [N-cyclopropyl-4-(thiophen-3-yl)-3-(3-(3-(trifluoromethyl)phenyl)ureido)benzenesulfonamide], the remaining activity at 1.25 µM in experiment [1] (Well no.=5549) turned out to be 100%. In addition, the remaining activity at 3.75 µM in experiment [2] (Well no.=5549) stood at 103%.

As for `c1cc(-c2cnn3cc(-c4ccc(N5CCNCC5)cc4)cnc23)c2cccnc2c1` [5-(6-(4-(piperazin-1-yl)phenyl)pyrazolo[1,5-a]pyrimidin-3-yl)quinoline], the remaining activity at 1.25 µM in experiment [1] (Well no.=6009) was 104%. Further, the remaining activity at 3.75 µM in experiment [2] (Well no.=6009) turned out to be 101%.

Take `CNC(=O)c1ccc(-c2cnc3ncc(Cc4ccc5ncccc5c4)n3n2)cc1F` [INCB28060]: the remaining activity at 1.25 µM in experiment [1] (Well no.=5119) worked out at 102%. In addition, in experiment [2] (Well no.=5119), the remaining activity at 3.75 µM is 103%.

As to `CCCc1cc(=O)[nH]c(=S)[nH]1` [Propylthiouracil], the remaining activity at 1.25 µM in experiment [1] (Well no.=4670) amounted to 98.7%. The remaining activity at 3.75 µM in experiment [2] (Well no.=4670) is 94.9%.

Turning to `O=C(/C=C/c1cccnc1)NCCCCC1CCN(C(=O)c2ccccc2)CC1` [APO866 (FK866)], the remaining activity at 1.25 µM in experiment [1] (Well no.=5123) was determined as 99%. In addition, the remaining activity at 3.75 µM in experiment [2] (Well no.=5123) was 94.7%.

`Cc1cccc([C@H](C)c2c[nH]cn2)c1C` [Dexmedetomidine (hydrochloride)]: in experiment [1] (Well no.=6367), the remaining activity at 1.25 µM came to 102%. Also, the remaining activity at 3.75 µM in experiment [2] (Well no.=6367) turned out to be 103%.

As to `CCCCCC#CCC#CCC#CCC#CCCCC(=O)O` [5,8,11,14-Eicosatetraynoic acid], in experiment [1] (Well no.=4472), the remaining activity at 1.25 µM turned out to be 98.7%. Further, the remaining activity at 3.75 µM in experiment [2] (Well no.=4472) is 97.4%.

Consider `NCC(O)c1ccc(O)cc1` (racemic) [(+,-)-Octopamine HCl], for which the remaining activity at 1.25 µM in experiment [1] (Well no.=5038) stood at 101%. The remaining activity at 3.75 µM in experiment [2] (Well no.=5038) came to 103%.

Take `COC(=O)c1cc2c(cn1)[nH]c1ccccc12` [Methyl beta-carboline-3-carboxylate]: the remaining activity at 1.25 µM in experiment [1] (Well no.=607) stood at 95.4%. For the same compound, the remaining activity at 3.75 µM in experiment [2] (Well no.=607) came out at 98.2%.

Regarding `Cn1nnc2c(C(N)=O)ncn2c1=O` [Temozolomide], the remaining activity at 1.25 µM in experiment [1] (Well no.=1952) is 95%. The remaining activity at 3.75 µM in experiment [2] (Well no.=1952) was 99.1%.

For `C[C@@H]1COC(Nc2ccc3ncnc(Nc4ccc(OCc5nccs5)c(Cl)c4)c3c2)=N1` [ARRY334543], the remaining activity at 1.25 µM in experiment [1] (Well no.=5073) came out at 102%. In experiment [2] (Well no.=5073), the remaining activity at 3.75 µM came out at 106%.

For `CO/N=C(\C(=O)N[C@@H]1C(=O)N2C(C(=O)O)=C(CSC(=O)c3ccco3)CS[C@H]12)c1csc(N)n1` [Ceftiofur HCl], the remaining activity at 1.25 µM in experiment [1] (Well no.=5288) came out at 90.5%. Moreover, in experiment [2] (Well no.=5288), the remaining activity at 3.75 µM stood at 91.7%.

`CCC1(c2cccc(O)c2)CCCCN(C)C1` (stereo not drawn) [Meptazinol (hydrochloride)]: the remaining activity at 1.25 µM in experiment [1] (Well no.=6511) was found to be 102%. Also, the remaining activity at 3.75 µM in experiment [2] (Well no.=6511) is 98.2%.

As for `CNC(C)Cc1ccccc1OC` (stereo not drawn) [Methoxyphenamine (Hydrochloride)], the remaining activity at 1.25 µM in experiment [1] (Well no.=8577) was found to be 109%. The remaining activity at 3.75 µM in experiment [2] (Well no.=8577) is 105%.

In the case of `CCc1cc2c(=O)c(-c3nc4ccccc4s3)coc2c(CN2CCCCC2)c1O` [SZL P1-41], in experiment [1] (Well no.=6694), the remaining activity at 1.25 µM came to 103%. Further, the remaining activity at 3.75 µM in experiment [2] (Well no.=6694) is 102%.
